ChEMBL document CHEMBL2439994, “Synthesis and biological evaluation of hydrazidomycin analogues” (Bioorg Med Chem Lett, 2013)

Legend:
K562 = assay: Antiproliferative activity against human K562 cells after 72 hrs by resazurin dye reduction assay; assay type: functional; settings: K562, 72 h
[1] = Antiproliferative activity against HUVEC after 72 hrs by resazurin dye reduction assay; assay type: cell-based; settings: human, HUVEC cells
HeLa = assay: Cytotoxicity against human HeLa cells after 72 hrs by methylene blue staining; assay type: functional
HT-29 = assay: Antiproliferative activity against human HT-29 cells after 72 hrs by resazurin dye reduction assay; assay type: functional; settings: HT-29, 72 h

Row | SMILES | GI50 (K562) | GI50 at 72 h [1] | CC50 (HeLa) | GI50 (HT-29)
1 | CCCCCCCCCCCC/C=C/N(NC(=O)COC)C(=O)CCCCCCCCC | > 110 µM | 46.2 µM | > 110 µM | –
2 | CCCCCCCCCCCC/C=C/N(NC(=O)COC)C(=O)OC(C)(C)C | 41.4 µM | 36.1 µM | 57.7 µM | –
3 | CCCCCCCCCCCC/C=C\N(NC(=O)CCl)C(=O)CCCCCCCCC | 18.4 µM | 57.5 µM | 104 µM | –
4 | CCCCCCCCCCCC/C=C\N(NC(=O)COC)C(=O)CCCCCCCCC [HYDRAZIDOMYCIN A] | > 110 µM | 70.7 µM | 108 µM | 0.46 µM
5 | CCCCCCCC/C=C/N(NC(=O)COC)C(=O)OC(C)(C)C | 45 µM | 49.9 µM | 83.2 µM | –
6 | CCCCCCCCCCNNC(=O)COC | 167 µM | 156 µM | 138 µM | –
7 | CCCCCCCCCCN(NC(=O)COC)C(=O)CCCCCCCCC | 97.3 µM | 114 µM | > 125 µM | –
8 | CCCCCCCC/C=C\N(NC(=O)COC)C(=O)OC(C)(C)C | 61.3 µM | 85.5 µM | 104 µM | –
9 | CCCCCCCCCCCCCCN(NC(=O)COC)C(=O)OC(C)(C)C | 40.9 µM | 12.2 µM | 41.9 µM | –
10 | CCCCCCCCCCN(NC(=O)COC)C(=O)OC(C)(C)C | 40.6 µM | 22.9 µM | 104 µM | –
11 | CCCCCCCCCCCCCCN(NC(=O)COC)C(=O)CCCCCCCCC | > 110 µM | 103 µM | > 110 µM | –
12 | CCCCCCCCCCCCCCNNC(=O)COC | 66.2 µM | 33.6 µM | 59.6 µM | –
13 | CCCCCCCCCCCCCCN(N)C(=O)OC(C)(C)C | 58.7 µM | 27.1 µM | 96.5 µM | –
14 | CCCCCCCCCCCC/C=C\N(NC(=O)COC)C(=O)OC(C)(C)C | 28.3 µM | 15.8 µM | 85.3 µM | –
15 | CCCCCCCCCCCC/C=C\N(NC(C)=O)C(=O)CCCCCCCCC | 41.9 µM | 39.7 µM | 83.3 µM | –
